Assay results taken from US4935440A, “3-[ω-(3,5-Di-t-butyl-4-hydroxyphenyl)alkyl]pyrroles, and anti-inflammatory uses thereof” (Syntex (U.S.A.) Inc., priority 1989, dated 1990).
Values joined by “and” are separate entries in the source; they are usually repeats but may differ in a detail not shown here. Identical values can stand only once.

Tests used:
mice = test: Arachidonic Acid-Induced Mouse Ear Edema Assay "AAI"; type: in vivo; details: topical in acetone
Procedure: Topical anti-inflammatory activity is determined by the Arachidonic Acid-Induced Mouse Ear Edema "AAI" Assay, as is well accepted in the art. A modification of the assay described by Young, et al., supra., is performed as follows:
The test materials are prepared as solutions in acetone and applied to the right ears of mice, in groups of eight (8), at hour 0. At hour 1, 2 mg of arachidonic acid in acetone solution is applied to the right ears of the mice to induce an inflammatory response. The left ears of these animals serves as negative controls. At hour 2 the mice are sacrificed; their ears are removed and 8 mm diameter full thickness plugs are cut from the tip of each ear. The plugs are weighed and the mean right and left plug weights are calculated for each group. The results are expressed as percent inhibition of ear plug weight increase relative to a positive control group receiving only acetone at hour 0.

[1] = as reported by Isomura, et al., Chem. Pharm. Bull., 32(1): 152-165 (1984); cited from earlier work
Female Hla:(SD) BR rats = test: Adjuvant-Induced Arthritis Assay "AI"; type: in vivo, rat; details: oral, day 18, vs control animals
Procedure: Anti-inflammatory activity is determined by the Adjuvant-Induced Arthritis ("AI") Assay, as is well accepted in the art. A modification of the assay described by Pearson, et al., supra., is performed as follows:
Female Hla:(SD) BR rats weighting 160-180 g are randomly distributed to treatment groups of 12 animals, and given food and water ad libitum. Test materials are prepared fresh weekly as suspensions in carboxymethyl cellulose. The test animals are orally dosed with the suspensions in volumes of 1 ml twice per day Monday through Friday, and with 2 ml once per day on Saturdays and Sundays. […] At time 0, rats are injected intradermally in the proximal quarter of the tail with 0.1 ml of a mineral oil suspension of heat-killed Mycobacterium butyricum (Difco) at a concentration of 10 mg/ml. On day 18 the intensity of swelling in the four paws and tail is estimated visually and scored (0-4 for paws, 0-3 for tail) such that the total maximum score, indicating intense swelling of all four paws and tail, is 19. The animals are then sacrificed; the hind paws of each animal are removed and weighed. The percent inhibition is calculated by comparing the weight increase of the hind paws of the test animals versus the control animals.
The "AI" assay, as described in Example 29, was performed using 3-(3,5-di-t-butyl-4-hydroxybenzoyl)pyrrole (prepared according to Example 2) as the test material.

| Structure (SMILES) | Inhibition (AAI) of ear plug weight increase (mice; dose 2.0 mg/ear) | anti-inflammatory activity [1] | inhibition of hind paw weight increase (Female Hla:(SD) BR rats; daily dose 0.4 mg/kg of body weight) | inhibition of hind paw weight increase (Female Hla:(SD) BR rats; daily dose 2.0 mg/kg of body weight) | Inhibition (AAI) of ear plug weight increase (mice; dose 0.5 mg/ear) | Inhibition (AAI) of ear plug weight increase (mice; dose 1.0 mg/ear) |
| --- | --- | --- | --- | --- | --- | --- |
| CC(C)(C)c1cc(C(=O)c2ccc[nH]2)cc(C(C)(C)C)c1O [B, 2-(3,5-di-t-butyl-4-hydroxybenzoyl)pyrrole, reference compound] | 22% | – | – | – | – | – |
| Cc1[nH]ccc1-c1cc(C(C)(C)C)c(O)c(C(C)(C)C)c1 [Formula VIII] | – | inactive | – | – | – | – |
| CC(C)(C)c1cc(C(=O)c2cc[nH]c2)cc(C(C)(C)C)c1O [A, 3-(3,5-di-t-butyl-4-hydroxybenzoyl)pyrrole] | 67% and 69% | – | 54% | 70% | 49% | 62% |
